Literature values in patent US20040126339A1, “Sunscreen composition and methods for manufacturing and using a sunscreen composition” (priority 2002, published 2004).

Settings: in vivo

Substance	dermal toxicity
Poly(vinylpyrrolidone/1-hexadecene) [PVPH]	no demonstrable dermal toxicity
Poly(vinylpyrrolidone/1-eicosene) [PVPE]	no demonstrable dermal toxicity
